Results on three compounds are retold here after paper PMC6273432, “Novel Selective Butyrylcholinesterase Inhibitors Incorporating Antioxidant Functionalities as Potential Bimodal Therapeutics for Alzheimer’s Disease” (Molecules, 2016).

Each structure is given as a SMILES string. Where “and” joins values, the source holds several entries; their conditions need not be identical. Equal values may be shown once. Read-outs that look alike come from different tables or passages of the source. A value given as a limit tells only on which side of the number the result lay.

One assay deals with BuChE. The settings on record: cited from earlier work.
Assay [1] deals with T1, BuChE purified from human plasma (Homo sapiens, UniProt P06276).
T1 construct: BuChE purified from human plasma; from tissue; host or cells: human plasma
T1 sequence (P06276 29-602): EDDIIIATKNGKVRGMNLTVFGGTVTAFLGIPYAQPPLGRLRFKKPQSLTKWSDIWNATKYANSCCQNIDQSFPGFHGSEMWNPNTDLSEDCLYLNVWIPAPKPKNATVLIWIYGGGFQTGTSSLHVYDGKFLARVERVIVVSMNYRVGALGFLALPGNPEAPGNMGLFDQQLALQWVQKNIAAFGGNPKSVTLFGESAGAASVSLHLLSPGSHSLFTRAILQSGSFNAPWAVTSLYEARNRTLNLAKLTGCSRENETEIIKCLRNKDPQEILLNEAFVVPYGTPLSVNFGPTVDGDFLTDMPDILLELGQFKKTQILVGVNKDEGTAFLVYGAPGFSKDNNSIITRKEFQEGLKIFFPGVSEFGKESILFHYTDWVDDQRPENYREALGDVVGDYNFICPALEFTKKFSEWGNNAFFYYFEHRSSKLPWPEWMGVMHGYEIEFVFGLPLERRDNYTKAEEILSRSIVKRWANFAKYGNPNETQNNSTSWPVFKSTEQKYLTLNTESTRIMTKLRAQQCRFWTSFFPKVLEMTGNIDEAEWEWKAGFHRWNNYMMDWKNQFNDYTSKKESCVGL
Briefly: Ellman assay, BuChE inhibition. The class given is biochemical. As for the experimental part:
(§1) Inhibitory activities of the isosorbide-2-carbamates bearing a lipoate ester (7a–d), a ferulate ester (8a–d) ester or 5-unsubstituted compounds (6a–d) was measured using the standard Ellman spectrophotometric method using AChE from electric eel or BuChE purified from human plasma with acetylthiocholine or butyrylthiocholine as appropriate (Table 1). […] These values are in the potency range of clinically used cholinesterase inhibitors. […] In most cases, it was not possible to achieve a maximal inhibition of AChE because the solubility threshold was lower than the concentration required for maximal inhibition. In previous studies, we noticed that phenyl carbamates of isosorbide are relatively weak inhibitors of BuChE compared with the benzyl and alkyl carbamates, but that AChE is relatively tolerant of isosorbide phenyl carbamates. We published a paper showing that isosorbide-2,5-diaryl esters are moderately potent substrate-inhibitors of AChE [25]. […] The effect of (appropriate) 5-ester substitution in the series of isosorbide compounds already published is to increase potency by promoting affinity in the pre-carbamylation state, reducing the pseudo Michaelis constant for the carbamate substrate (referred to as Kc in carbamylation literature). When the intrinsic affinity of the substrate carbamate is higher, there is a relatively greater proportion of the unimolecular E. carbamate complex. In the present case, the anti-oxidant ester functionality directly contributes to potency by increasing substrate affinity. […] Indeed, ester hydrolysis at the isosorbide C-5, which is slow, would produce the ferulic acid or lipoic acid byproduct.
(§2) Cholinesterase activity was measured using the Ellman spectrophotometric method. HuBuChE activity was measured in replicate samples using a 96-well plate reader. The total volume of test solution in each well was 250 μL. This consisted of 25 μL of plasma solution, 150 μL of phosphate buffer pH 8.0, 25 μL of DTNB solution (0.5 mM), and 25 μL of acetonitrile:distilled water (1:1). The 96-well plate was incubated for 30 min before 25 μL of butyrylthiocholine iodide (BTCI) solution (0.5 mM) was added, and the reaction was measured at 405 nm over 5 min using an Anthos bt2 plate reader. For the determination of AChE activity, 25 μL of electric eel AChE solution and 25 μL of acetylthiocholine iodide (ATCI) solution were used instead of the plasma solution and BTCI solution. For determination of enzyme inhibition, 25 μL of an inhibitor solution was added to the test solution instead of the acetonitrile:water (1:1) solution. Inhibitors were added 30 min before determination of remaining enzyme activity. IC50 values were calculated using GraphPad Prism 4.02 software (GraphPad Software Inc., La Jolla, CA, USA).
For orientation: Ellman's reagent forms a yellow product with free thiols.

In a further assay the target is T2, AChE from electric eel (Electrophorus electricus, UniProt O42275).
T2 construct: AChE from electric eel; from tissue
T2 sequence (O42275 24-633): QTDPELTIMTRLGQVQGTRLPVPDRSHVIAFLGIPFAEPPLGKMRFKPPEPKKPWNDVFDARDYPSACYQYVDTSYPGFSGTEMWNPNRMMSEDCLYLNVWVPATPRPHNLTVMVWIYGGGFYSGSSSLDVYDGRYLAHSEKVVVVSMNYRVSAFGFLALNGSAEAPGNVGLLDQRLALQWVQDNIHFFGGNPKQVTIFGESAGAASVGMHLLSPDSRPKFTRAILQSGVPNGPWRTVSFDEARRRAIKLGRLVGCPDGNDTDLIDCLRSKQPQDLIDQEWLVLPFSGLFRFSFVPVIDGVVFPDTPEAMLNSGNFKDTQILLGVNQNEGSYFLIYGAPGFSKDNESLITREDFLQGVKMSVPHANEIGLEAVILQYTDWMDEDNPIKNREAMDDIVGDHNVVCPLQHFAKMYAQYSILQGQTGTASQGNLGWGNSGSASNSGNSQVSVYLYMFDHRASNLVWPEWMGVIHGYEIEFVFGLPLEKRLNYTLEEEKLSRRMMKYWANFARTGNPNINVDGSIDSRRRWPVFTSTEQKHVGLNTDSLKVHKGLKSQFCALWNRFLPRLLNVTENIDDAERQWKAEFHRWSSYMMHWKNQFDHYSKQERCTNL
As to the kind of experiment: Ellman assay, AChE inhibition. The class given is biochemical. To be noted: 100 μM; n = 3; read-out: AChE %I at 100 μM. The procedure: as §1, §2

A further assay deals with human BuChE (Homo sapiens, UniProt P06276). As to the kind of experiment: Inhibitor kinetics, time dependence of BuChE carbamylation. Type of assay: biochemical. To be noted: r^2 > 0.99. The procedure:
Solutions of human BuChE were treated with 7a in the range of 1–50 µM. At successive time intervals, aliquots were removed and the carbamylation reaction stopped by dilution. Residual enzyme activity at each time point and each inhibitor concentration level was estimated by adding the sample to a solution containing butyrylthiocholine substrate.
In order to monitor enzyme carbamylation over time, a 96-well plate was used, with all assay mixtures being made up to a final concentration of 250 μL for monitoring of absorbance at 412 nm. At time 0, 150 μL of inhibitor, at various concentrations, was added to an equal volume of enzyme. Thereafter, at successive time points, 50 μL aliquots were removed from these wells and added to wells containing 200 μL DTNB and BTCI in phosphate buffer pH 8.0. Hydrolysis of substrate was monitored by examining the changes in absorbance in each well at 412 nm over the following 30 s. Negative controls were run alongside the test solutions to take account of non-enzymatic hydrolysis, while positive controls gauged the rate of the uninhibited reaction. At least two replicate wells were run for each concentration of inhibitor. Plots of percentage inhibition over time were prepared using GraphPad Prism 4.03. A first order inhibition constant, kobs was obtained for each concentration of inhibitor by non-linear regression using an exponential decay function.

Assay [2] concerns HT-22 murine hippocampal cell line. As to the kind of experiment: cells. Type of assay: cell-based. To be noted: glutamate 5 mM, tested at 1, 5, 10 and 25 µM. The procedure:
The neuroprotective properties of the compounds were assessed using the HT-22 murine hippocampal cell line. This is an immortalized cell line which has become widely used in recent years to study oxidative stress induced neuronal cell death. The cell line lacks ionotropic glutamate receptors but is sensitive to glutamate cytotoxicity via non-receptor mediated pathway(s) that are to a significant extent propagated by reactive oxygen species. The cell line appeared to be a good cellular model for measuring an anti-oxidant mediated neuroprotective in vitro effect of the compounds [26, 27, 28].
Test compounds in DMSO solution (0.1%) were added to HT-22 cell culture for (24 h), using four repeats in three independent experiments. […] Lipoic acid and ferulic acid were also non-toxic in the same concentration range. Next, the neuronal cell culture was treated with glutamate (5 mM) which caused about 90% cell death as reflected in the MTT assay. Quercetin served as positive control and caused rescue of cell death to around 80% cell viability at 25 µM. Cells were co-treated with test compounds 7a–d and 8a–d at 1, 5, 10 and 25 µM in four repeats and three independent experiments. Lipoic and ferulic acid were tested in parallel experiments in the same concentration range. Lipoic acid was active in the range 10–25 µM but ferulic acid was not active (data not shown). […] The reasons for this unexpected variation in efficacy is not clear but may be due to (intra)cellular access.
This test was performed as reported before. Briefly, HT-22 cells were seeded in 96-well plates at a density of 5 × 10^3 per well and cultured for 24 h. Subsequently, cells were incubated for another 24 h either with medium or test compounds with potential cytoprotective activity either in the absence (to test for toxic effects) or the presence (to test for the protective potential against glutamate induced oxidative stress) of 5 mM glutamate. MTT solution (4 mg/mL in PBS) was diluted 1:10 with medium and the mixture was added to the wells after removal of the previous medium. The plates were then incubated for another 3 h. Then, the supernatant was removed and 100 µL of lysis buffer (10% SDS, pH 4.1) were added to the wells. Absorbance at 560 nm was determined on the next day using a multiwell plate photometer (Spectra Fluor Plus, Tecan, Crailsheim, Germany). The results of these cell viability assays were expressed as percentages relative to untreated control cells. All compounds were dissolved in DMSO and diluted with fresh medium, with the DMSO concentration always below 0.1% (v/v).
Data of all MTT tests were expressed as means ± SD of at least three independent experiments (in quadruplicates). Data were subjected to one-way ANOVA followed by Dunnett’s multiple comparison post-test using GraphPad Prism 5 Software. (Levels of significance ** p < 0.01; *** p < 0.001).

Chain of human BuChE (P06276 29-602): as the sequence (P06276 29-602) above

Usually IC50 stands for the concentration at which inhibition is half-maximal. In the case of `O=C(NCc1ccccc1)O[C@H]1CO[C@H]2[C@@H]1OC[C@H]2OC(=O)c1ccccc1` [Compound 1], the IC50 in the assay on BuChE (read-out: IC50 BuChE) was 4.3 nM.

`O=C(CCCCC1CCSS1)O[C@@H]1CO[C@H]2[C@@H]1OC[C@@H]2OC(=O)NCc1ccccc1` (some centres unmarked) [Compound 7a, Isosorbide-2-benzylcarbamate-5-lipoic acid ester] gave a Selectivity in assay [1] (IC50 AChE/IC50 BuChE, 100 µM used for AChE where % inhibition at 100 µM was <50%) above 667. The concentration for half-maximal inhibition (IC50) in assay [1] (inhibitor added 30 min before, n = 3, read-out: BChE IC50) is 150 nM. In addition, the inhibition at 100 µM on AChE from electric eel came to 30.8%. The figures for the “pseudo first order rate constant of BuChE inhibition” value at human BuChE (inhibitor 10 µM) and on human BuChE (inhibitor 50 µM) were 0.068 min⁻¹ and 0.198 min⁻¹, respectively. In addition, the “concentration range with neuroprotective effect” value in assay [2] was 5 to 25 µM and > 5 µM.

As for `O=C(NCc1ccccc1)OC1COC2C(OC(=O)c3ccccc3O)COC12` (centres unmarked) [Isosorbide-2-benzyl carbamate-5-salicylate], in the assay with BuChE (read-out: IC50 for BuChE), the IC50 was below 0.15 nM.
